From patent US10391095B2, “DNA-PK inhibitors” (Vertex Pharmaceuticals Incorporated, priority 2012, dated 2019)

These compounds were tested against DNA-PK (Homo sapiens, UniProt P78527) (assay: DNA-PK inhibition assay (radiometric, 33P-ATP)). Settings: 100 μM ATP, competitive tight-binding fit.
Assay type: biochemical
How it was run: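 33P transfer from 100 µM ATP to a DNA-PK peptide (0.8 mg/mL) is measured after 45 min, using about 6 nM enzyme activated by 10 µg/mL sheared dsDNA (HEPES pH 7.5, MgCl2, DTT). Filter-bound counts fitted to a competitive tight-binding inhibition model give Ki.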
For CNC(=O)c1c(-n2ccnc2)cnc2c([C@H](C)CNc3cc(-c4ccc(C)nc4)ncn3)cccc12 [Compound 763], the Ki was less than 0.03 µM. CNC(=O)c1ccnc2c([C@H](C)CNc3cc(-c4cncc(N5CCOCC5)c4)ncn3)ccc(F)c12 [Compound 915] gave a Ki of less than 0.03 µM. In the case of CNC(=O)c1c(F)cnc2c([C@H](C)CNc3cc(-c4cnc(C#N)c(OC)c4)ncn3)cccc12 [Compound 918], the Ki is reported as less than 0.03 µM. COc1ccccc1CCNc1cc(-c2cnc3c(ccn3CC3CCOCC3)c2)ncn1 [Compound 41] showed a Ki of less than 0.03 µM. Compound CNC(=O)c1ccnc2c([C@H](C)CNc3cc(N4CCn5ccnc5C4)ncn3)cccc12 [Compound 741] has a Ki of less than 0.03 µM. CNC(=O)c1ccnc2c([C@H](C)CNc3cc(-c4ccc(N(C)C5CCS(=O)(=O)C5)nc4)ncn3)cccc12 (some centres unmarked) [Compound 711] gave a Ki of less than 0.03 µM. In the case of CNC(=O)c1c(F)cnc2c([C@H](C)CNc3cc(-c4cncc(C#N)c4)ncn3)cccc12 [Compound 963], the Ki is reported as less than 0.03 µM. CNC(=O)c1ccnc2c([C@H](C)CNc3cc(-c4ccc(C)nc4)ncn3)ccc(OC)c12 [Compound 509] was tested, and the Ki was less than 0.03 µM. COc1ccccc1[C@H](C)CNc1cc(-c2ccnc(-c3ccnc(F)c3)c2)ncn1 [Compound 105] showed a Ki of less than 0.03 µM. Work on CNC(=O)c1ccnc2c([C@H](C)CNc3cc(-c4cnc(C5CCOCC5)nc4)ncn3)ccc(F)c12 [Compound 832] yielded a Ki of less than 0.03 µM. Work on CNC(=O)c1ccnc2c([C@H](C)CNc3cc(-c4ccc(OC)nc4)ncn3)ccc(F)c12 [Compound 908] yielded a Ki of less than 0.03 µM. Cc1ccc(-c2cc(NC[C@@H](C)c3cccc4c(=O)n(C)cnc34)ncn2)cn1 [Compound 698] was tested, and the Ki was less than 0.03 µM. For COc1ccccc1[C@H](C)CNc1cc(-c2ccc(N3CCCC3)nc2)ncn1 [Compound 84], the Ki was less than 0.03 µM. Work on CNC(=O)c1ccnc2c([C@H](C)CNc3cc(-c4cnc(OC)c(OC)c4)ncn3)ccc(F)c12 [Compound 906] yielded a Ki of less than 0.03 µM. Compound Cc1ccc(-c2cc(NCC(C)c3cccc4c3OCCO4)ncn2)cn1 (centres unmarked) [Compound 447] has a Ki of less than 0.03 µM. CNC(=O)c1c(F)cnc2c([C@H](C)CNc3cc(-c4cnc(C(C)(C)OC)nc4)ncn3)cccc12 [Compound 930] showed a Ki of less than 0.03 µM. For Cc1ccc(-c2cc(NCC(C)c3ccnc4c3OCCN4)ncn2)cn1 (centres unmarked) [Compound 648], the Ki was less than 0.03 µM. C[C@H](CNc1cc(-c2ccc3ncccc3c2)ncn1)c1ccnc2cccnc12 [Compound 501] showed a Ki of less than 0.03 µM. CC(=O)N1CCOc2c([C@H](C)CNc3cc(-c4ccc(C)nc4)ncn3)cccc21 [Compound 504] was tested, and the Ki was less than 0.03 µM. Compound CNC(=O)c1ccnc2c([C@H](C)CNc3cc(-c4ccc(C)nc4)ncn3)ccc(F)c12 [Compound 515] has a Ki of less than 0.03 µM. Compound CNC(=O)c1c(F)cnc2c([C@H](C)CNc3cc(-c4ccc(C5CC5)nc4)ncn3)cccc12 [Compound 857] has a Ki of less than 0.03 µM. CNC(=O)c1ccnc2c([C@H](C)CNc3cc(-c4cnc(NC)nc4)ncn3)ccc(F)c12 [Compound 623] showed a Ki of less than 0.03 µM. CNC(=O)c1ccnc2c([C@H](C)CNc3cc(-c4ccnc(C5CC5)c4)ncn3)ccc(F)c12 [Compound 914] was tested, and the Ki was less than 0.03 µM. In the case of CNC(=O)c1ccc([C@H](C)CNc2cc(-c3cnc4c(cnn4C4CCN(C)CC4)c3)ncn2)c(OC)c1 [Compound 286], the Ki is reported as less than 0.03 µM. With CNc1ccccc1[C@H](C)CNc1cc(-c2ccc(C(=O)NCCC#N)nc2)ncn1 [Compound 408] the Ki was less than 0.03 µM. Work on [2H]c1nc(C)nc([2H])c1-c1cc(NC[C@@H](C)c2cccc3c(C(=O)NC)c(F)cnc23)ncn1 [Compound 862] yielded a Ki of less than 0.03 µM. Work on CNC(=O)c1ccnc2c([C@H](C)CNc3cc(-c4cnc(C)nc4)ncn3)cc(F)cc12 [Compound 637] yielded a Ki of less than 0.03 µM. Compound CNC(=O)c1c(F)cnc2c([C@H](C)CNc3cc(-c4cnc(CO)c(OC)c4)ncn3)cccc12 [Compound 920] has a Ki of less than 0.03 µM. For CNC(=O)c1ccnc2c([C@H](C)CNc3cc(-c4ccc(C(N)=O)cc4)ncn3)cccc12 [Compound 759], the Ki was less than 0.03 µM. Compound CNC(=O)c1ccc([C@H](C)CNc2cc(-c3ccc(N4CCCC4=O)cc3)ncn2)c(OC)c1 [Compound 313] has a Ki of less than 0.03 µM. CNCCNc1ccc(-c2cc(NC[C@@H](C)c3ccc(C(=O)NC)cc3OC)ncn2)cn1 [Compound 469] was tested, and the Ki was less than 0.03 µM. In the case of CCNc1ccc(-c2cc(NC[C@@H](C)c3ccc(C(=O)NC)cc3OC)ncn2)cn1 [Compound 360], the Ki is reported as less than 0.03 µM. C[C@H](CNc1cc(-c2cnc3[nH]ncc3c2)ncn1)c1ccnc2c1OCC2 [Compound 437] gave a Ki of less than 0.03 µM. CCNc1ccc(-c2cc(NC[C@@H](C)c3cccc4c(C(=O)NC)c(F)cnc34)ncn2)cn1 [Compound 979] showed a Ki of less than 0.03 µM. With Cc1ncc(-c2cc(NC[C@@H](C)c3cccc4scnc34)ncn2)cn1 [Compound 658] the Ki was less than 0.03 µM. With CNC(=O)c1ccc(C(C)CNc2cc(-c3ccc(OCC4CCC4)nc3)ncn2)c(OC)c1 (centres unmarked) [Compound 321] the Ki was less than 0.03 µM. CNC(=O)c1ccnc2c([C@H](C)CNc3cc(-c4ccc(OC)nc4)ncn3)cccc12 [Compound 615] gave a Ki of less than 0.03 µM. Compound Cc1ccc(-c2cc(NCC(C)c3ccccc3OCC3CCCO3)ncn2)cn1 (centres unmarked) [Compound 195] has a Ki of less than 0.03 µM. CNC(=O)c1ccnc2c([C@H](C)CNc3cc(-c4cnc(C)c(F)c4)ncn3)cccc12 [Compound 972] gave a Ki of less than 0.03 µM. Work on CNC(=O)c1ccc([C@H](C)CNc2cc(-c3ccc(NC(C)CO)nc3)ncn2)c(OC)c1 (single isomer, unassigned) [Compound 357] yielded a Ki of less than 0.03 µM. In the case of CNC(=O)c1ccnc2c([C@H](C)CNc3cc(-c4cnc(N(C)C)nc4)ncn3)cccc12 [Compound 810], the Ki is reported as less than 0.03 µM. Compound CNC(=O)c1ccnc2c([C@H](C)CNc3cc(-c4cnc(N)c(F)c4)ncn3)cccc12 [Compound 867] has a Ki of less than 0.03 µM. CNC(=O)c1ccnc2c([C@H](C)CNc3cc(-c4ccc5c(c4)CCO5)ncn3)cccc12 [Compound 842] showed a Ki of less than 0.03 µM. Compound C[C@H](CNc1cc(-c2ccc(N(C)C)nc2)ncn1)c1ccnc2c1OCCO2 [Compound 460] has a Ki of less than 0.03 µM. Work on CNC(=O)c1ccnc2c([C@H](C)CNc3cc(-c4ccc(C(F)(F)F)nc4)ncn3)cccc12 [Compound 649] yielded a Ki of less than 0.03 µM. COc1cscc1C(C)CNc1cc(-c2ccc(N3CCN(C)CC3)nc2)ncn1 (centres unmarked) [Compound 146] was tested, and the Ki was less than 0.03 µM. Work on CNC(=O)c1ccnc2c([C@H](C)CNc3cc(-c4ccc5c(c4)CC(=O)N5C)ncn3)cccc12 [Compound 825] yielded a Ki of less than 0.03 µM. COc1ccccc1[C@H](C)CNc1cc(-c2ccc(N(C)C3CCN(C)CC3)nc2)ncn1 [Compound 223] showed a Ki of less than 0.03 µM. In the case of CNC(=O)c1ccc([C@H](C)CNc2cc(-c3ccc4c(cnn4C4COC4)c3)ncn2)c(OC)c1 [Compound 243], the Ki is reported as less than 0.03 µM. Compound CNC(=O)c1ccnc2c([C@H](C)CNc3cc(-c4cnc(C(C)(C)O)c(F)c4)ncn3)cccc12 [Compound 822] has a Ki of less than 0.03 µM. CCN1CCCC1CNc1ccc(-c2cc(NC[C@@H](C)c3cccc4c(C(=O)NC)ccnc34)ncn2)cn1 (single isomer, unassigned) [Compound 704] was tested, and the Ki was less than 0.03 µM. In the case of CCNc1ccc(-c2cc(NC[C@@H](C)c3ccnc4cccnc34)ncn2)cn1 [Compound 514], the Ki is reported as less than 0.03 µM. For Cc1ccc(-c2cc(NC[C@@H](C)c3cccc4c(C(=O)NCC(F)(F)F)ccnc34)ncn2)cn1 [Compound 546], the Ki was less than 0.03 µM. With CCNc1ccc(-c2cc(NC[C@@H](C)c3cc(F)cc4c(C(=O)NC)ccnc34)ncn2)cn1 [Compound 572] the Ki was less than 0.03 µM. CNC(=O)c1ccnc2c([C@H](C)CNc3cc(-c4cnc(COC)nc4)ncn3)cccc12 [Compound 886] showed a Ki of less than 0.03 µM. For CNC(=O)c1ccnc2c([C@H](C)CNc3cc(-c4ccc(C)nc4)ncn3)cc(F)cc12 [Compound 562], the Ki was less than 0.03 µM. CC(O)Cn1ncc2cc(-c3cc(NC[C@@H](C)c4ccnc5c4OCCO5)ncn3)cnc21 (single isomer, unassigned) [Compound 503] showed a Ki of less than 0.03 µM. Compound CNC(=O)c1ccnc2c([C@H](C)CNc3cc(-c4cnc5c(c4)COC5)ncn3)cccc12 [Compound 952] has a Ki of less than 0.03 µM. For CNC(=O)c1ccc([C@H](C)CNc2cc(-c3ccc(NCC4CC4)nc3)ncn2)c(OC)c1 [Compound 364], the Ki was less than 0.03 µM. CNC(=O)c1ccnc2c([C@H](C)CNc3cc(-c4cnc(OC)c(OC)c4)ncn3)cccc12 [Compound 592] showed a Ki of less than 0.03 µM. CCOc1ccccc1CCNc1cc(-c2ccc(C)nc2)ncn1 [Compound 57] was tested, and the Ki was less than 0.03 µM. With C[C@H](CNc1cc(-c2cnc3c(cnn3C3CN(C(=O)OC(C)(C)C)C3)c2)ncn1)c1ccnc2c1OCCO2 [Compound 526] the Ki was less than 0.03 µM. CNC(=O)c1ccc([C@H](C)CNc2cc(-c3ccc4[nH]c(=O)[nH]c4c3)ncn2)c(OC)c1 [Compound 315] gave a Ki of less than 0.03 µM. In the case of CCOc1cc(-c2cc(NC[C@@H](C)c3cccc4c(C(=O)NC)c(F)cnc34)ncn2)cnc1OCC [Compound 897], the Ki is reported as less than 0.03 µM. In the case of CNC(=O)c1ccnc2c([C@H](C)CNc3cc(-c4cnc(OC)s4)ncn3)cccc12 [Compound 779], the Ki is reported as less than 0.03 µM. With COCCn1ccc2cc(-c3cc(NCCc4ccccc4OC)ncn3)cnc21 [Compound 38] the Ki was less than 0.03 µM. With COc1ccccc1[C@H](C)CNc1cc(-c2ccc(N(C)C)nc2)ncn1 [Compound 255] the Ki was less than 0.03 µM. With C[C@H](CNc1cc(-c2ccc(C(=O)NCCC#N)cc2)ncn1)c1ccnc2c1OCC2 [Compound 432] the Ki was less than 0.03 µM. Work on CCOc1cc(F)ccc1[C@H](C)CNc1cc(-c2ccc(C)nc2)ncn1 [Compound 103] yielded a Ki of less than 0.03 µM. For CNC(=O)c1c(F)cnc2c([C@H](C)CNc3cc(-c4ccc(C(C)C)nc4)ncn3)cccc12 [Compound 858], the Ki was less than 0.03 µM. Compound CC(CNc1cc(-c2cnc3c(cnn3CCO)c2)ncn1)c1cncc2c1OCCC2 (centres unmarked) [Compound 452] has a Ki of less than 0.03 µM. CNC(=O)c1ccnc2c([C@H](C)CNc3cc(-c4cnc(OC(C)C)c(C)c4)ncn3)cccc12 [Compound 947] was tested, and the Ki was less than 0.03 µM. With CNC(=O)c1ccnc2c([C@H](C)CNc3cc(-c4ccc(NCCC(C)O)nc4)ncn3)cccc12 (some centres unmarked) [Compound 709] the Ki was less than 0.03 µM. Compound CNC(=O)c1ccnc2c([C@H](C)CNc3cc(-c4cc(F)c(F)c(F)c4)ncn3)cccc12 [Compound 873] has a Ki of less than 0.03 µM.
